We go through two molecules from ChEMBL document CHEMBL4118026, “Limaol: A Polyketide from the Benthic Marine Dinoflagellate Prorocentrum lima” (J Nat Prod, 2017).

Holding throughout (format): functional, cell-based
In one assay the test system is N2a. The assay is described as follows: Cytotoxicity against mouse Neuro2a cells after 24 hrs by MTT assay.
The test system of a further assay is HCT-116. Kind of assay: Cytotoxicity against human HCT116 cells after 24 hrs by MTT assay. The settings on record: HCT-116, 24 h.
In another assay the test system is HepG2. The assay is described as follows: Cytotoxicity against human HepG2 cells after 24 hrs by MTT assay. The settings on record: HepG2, 24 h. (Tetrazolium dyes change colour on reduction, which living cells bring about.)

For orientation: IC50 means the concentration that gives 50% inhibition. A low value points to inhibition by little substance.

For the molecule `C=C(CC(=C)CC(=C)C[C@H]1CC(C)=C[C@@]2(C[C@@H](O)[C@H]3O[C@H](C[C@@H](O)CC(=C)C[C@H]4O[C@H](C/C=C/CCO)C[C@@H](O)[C@@H]4O)[C@H](O)[C@@H](O)[C@@H]3O2)O1)CC(=C)C[C@@H](C)C[C@@H](C)O`, the IC50 in the assay on N2a was determined as 9.6 µM; in the assay on HCT-116, 7.3 µM; with HepG2, 3.7 µM.

Turning to `C=C1[C@@H](O)[C@@H]2O[C@]3(CC[C@H](/C=C/[C@@H](C)[C@@H]4CC(C)=C[C@@]5(O[C@H](C[C@@](C)(O)C(=O)O)CC[C@H]5O)O4)O3)CC[C@H]2O[C@@H]1[C@@H](O)C[C@H](C)[C@H]1O[C@@]2(CCCCO2)CC[C@H]1C` [OKADAIC ACID], the figures for the 50% inhibitory concentration (IC50) with N2a, with HCT-116 and in the assay with HepG2 were 0.85 µM, 0.67 µM and 0.54 µM, respectively.
